Data from PubChem BioAssay (NCI).
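Values below derive from 48-hour exposures of cells grown in 96-well plates, with endpoints linearly interpolated between the two concentrations bracketing the appropriate inhibition level. Abbreviation: GI50, concentration required for 50% inhibition of growth. TGI denotes the concentration required for complete inhibition of growth.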

Legend:
Test in all cases: NCI tumour cell line growth inhibition, 48 h
OVCAR-3 ovarian = system: OVCAR-3 ovarian
TK-10 renal = system: TK-10 renal
KM12 colon = system: KM12 colon
NCI-H460 lung = system: NCI-H460 lung
NCI/ADR-RES ovarian = system: NCI/ADR-RES ovarian
CAKI-1 renal = system: CAKI-1 renal
OVCAR-8 ovarian = system: OVCAR-8 ovarian
SK-MEL-28 melanoma = system: SK-MEL-28 melanoma
NCI-H522 lung = system: NCI-H522 lung
SK-MEL-5 melanoma = system: SK-MEL-5 melanoma
HOP-62 NSCLC = system: HOP-62 NSCLC
SW-620 colon = system: SW-620 colon
HOP-92 NSCLC = system: HOP-92 NSCLC
NCI-H226 lung = system: NCI-H226 lung
UO-31 renal = system: UO-31 renal
DU-145 prostate = system: DU-145 prostate
SNB-19 CNS = system: SNB-19 CNS
K-562 leukemia = system: K-562 leukemia
ACHN renal = system: ACHN renal
SF-295 CNS = system: SF-295 CNS
SK-MEL-2 melanoma = system: SK-MEL-2 melanoma
PC-3 prostate = system: PC-3 prostate
SR leukemia = system: SR leukemia
U251 CNS = system: U251 CNS
MDA-MB-231 breast = system: MDA-MB-231 breast
MDA-MB-435 = system: MDA-MB-435
NCI-H23 lung = system: NCI-H23 lung
IGROV1 ovarian = system: IGROV1 ovarian
SNB-75 CNS = system: SNB-75 CNS
HS 578T breast = system: HS 578T breast
HCT-116 colon = system: HCT-116 colon
OVCAR-4 ovarian = system: OVCAR-4 ovarian
UACC-257 melanoma = system: UACC-257 melanoma
A549 NSCLC = system: A549 NSCLC
HCC-2998 colon = system: HCC-2998 colon
MALME-3M melanoma = system: MALME-3M melanoma
SF-268 CNS = system: SF-268 CNS
EKVX NSCLC = system: EKVX NSCLC
BT-549 breast = system: BT-549 breast
T-47D breast = system: T-47D breast
OVCAR-5 ovarian = system: OVCAR-5 ovarian
COLO 205 colon = system: COLO 205 colon
SF-539 CNS = system: SF-539 CNS
786-0 renal = system: 786-0 renal
SN12C renal = system: SN12C renal
RPMI-8226 leukemia = system: RPMI-8226 leukemia
UACC-62 melanoma = system: UACC-62 melanoma
RXF 393 renal = system: RXF 393 renal
SK-OV-3 ovarian = system: SK-OV-3 ovarian

SMILES: COC(=O)/C=C1/SC(=Nc2ccc(F)cc2)N(CCc2c[nH]c3ccc(O)cc23)C1=O
- GI50 (OVCAR-3 ovarian): 4.41 µM
- TGI (OVCAR-3 ovarian): > 100 µM
- GI50 (TK-10 renal): 14 µM
- TGI (TK-10 renal): 58.7 µM
- GI50 (KM12 colon): 5.56 µM
- TGI (KM12 colon): > 100 µM
- GI50 (NCI-H460 lung): 4.71 µM
- TGI (NCI-H460 lung): > 100 µM
- GI50 (NCI/ADR-RES ovarian): 4.69 µM
- TGI (NCI/ADR-RES ovarian): > 100 µM
- GI50 (CAKI-1 renal): 24.9 µM
- TGI (CAKI-1 renal): > 100 µM
- GI50 (OVCAR-8 ovarian): 4.45 µM
- TGI (OVCAR-8 ovarian): 67.5 µM
- GI50 (SK-MEL-28 melanoma): 7.34 µM
- TGI (SK-MEL-28 melanoma): > 100 µM
- GI50 (NCI-H522 lung): 3.85 µM
- TGI (NCI-H522 lung): > 100 µM
- GI50 (SK-MEL-5 melanoma): 11.1 µM
- TGI (SK-MEL-5 melanoma): 77.3 µM
- GI50 (HOP-62 NSCLC): 3.83 µM
- TGI (HOP-62 NSCLC): 19.7 µM
- GI50 (SW-620 colon): > 100 µM
- TGI (SW-620 colon): > 100 µM
- GI50 (HOP-92 NSCLC): 6.21 µM
- TGI (HOP-92 NSCLC): 29.6 µM
- GI50 (NCI-H226 lung): 4.17 µM
- TGI (NCI-H226 lung): 47.4 µM
- GI50 (UO-31 renal): 7.07 µM
- TGI (UO-31 renal): > 100 µM
- GI50 (DU-145 prostate): 5.92 µM
- TGI (DU-145 prostate): > 100 µM
- GI50 (SNB-19 CNS): 9.28 µM
- TGI (SNB-19 CNS): 51.9 µM
- GI50 (K-562 leukemia): > 100 µM
- TGI (K-562 leukemia): > 100 µM
- GI50 (ACHN renal): 7.29 µM
- TGI (ACHN renal): > 100 µM
- GI50 (SF-295 CNS): 12 µM
- TGI (SF-295 CNS): 41.3 µM
- GI50 (SK-MEL-2 melanoma): 2760 nM
- TGI (SK-MEL-2 melanoma): 9.06 µM
- GI50 (PC-3 prostate): 7.05 µM
- TGI (PC-3 prostate): > 100 µM
- GI50 (SR leukemia): 2080 nM
- TGI (SR leukemia): > 100 µM
- GI50 (U251 CNS): 4.32 µM
- TGI (U251 CNS): 27.3 µM
- GI50 (MDA-MB-231 breast): 14.8 µM
- TGI (MDA-MB-231 breast): > 100 µM
- GI50 (MDA-MB-435): 3.79 µM
- TGI (MDA-MB-435): > 100 µM
- GI50 (NCI-H23 lung): 7.49 µM
- TGI (NCI-H23 lung): > 100 µM
- GI50 (IGROV1 ovarian): 5.79 µM
- TGI (IGROV1 ovarian): > 100 µM
- GI50 (SNB-75 CNS): 4.01 µM
- TGI (SNB-75 CNS): 18.3 µM
- GI50 (HS 578T breast): 4.28 µM
- TGI (HS 578T breast): 35.7 µM
- GI50 (HCT-116 colon): 4.89 µM
- TGI (HCT-116 colon): > 100 µM
- GI50 (OVCAR-4 ovarian): 3.37 µM
- TGI (OVCAR-4 ovarian): 22.7 µM
- GI50 (UACC-257 melanoma): 9.82 µM
- TGI (UACC-257 melanoma): > 100 µM
- GI50 (A549 NSCLC): 41.2 µM
- TGI (A549 NSCLC): > 100 µM
- GI50 (HCC-2998 colon): > 100 µM
- TGI (HCC-2998 colon): > 100 µM
- GI50 (MALME-3M melanoma): 12.9 µM
- TGI (MALME-3M melanoma): > 100 µM
- GI50 (SF-268 CNS): 5.96 µM
- TGI (SF-268 CNS): 42.7 µM
- GI50 (EKVX NSCLC): 20.7 µM
- TGI (EKVX NSCLC): > 100 µM
- GI50 (BT-549 breast): 3.75 µM
- TGI (BT-549 breast): 38.4 µM
- GI50 (T-47D breast): 4.4 µM
- TGI (T-47D breast): > 100 µM
- GI50 (OVCAR-5 ovarian): > 100 µM
- TGI (OVCAR-5 ovarian): > 100 µM
- GI50 (COLO 205 colon): > 100 µM
- TGI (COLO 205 colon): > 100 µM
- GI50 (SF-539 CNS): 6.42 µM
- TGI (SF-539 CNS): 26.1 µM
- GI50 (786-0 renal): 6.85 µM
- TGI (786-0 renal): 40.1 µM
- GI50 (SN12C renal): 8.44 µM
- TGI (SN12C renal): > 100 µM
- GI50 (RPMI-8226 leukemia): 3.01 µM
- TGI (RPMI-8226 leukemia): > 100 µM
- GI50 (UACC-62 melanoma): 4.75 µM
- TGI (UACC-62 melanoma): 27.7 µM
- GI50 (RXF 393 renal): 2230 nM
- TGI (RXF 393 renal): 8.98 µM
- GI50 (SK-OV-3 ovarian): 24.4 µM
- TGI (SK-OV-3 ovarian): > 100 µM
